# Data from patent US11479528B2, “Heat shock protein 90 inhibitors” (TAIPEI MEDICAL UNIVERSITY, priority 2017, dated 2022).
# Like-named read-outs stand apart in the source and are kept apart here.
# Columns and labels:
# lung A549 = test: Sulforhodamine B (SRB) assay, lung A549; type: cell-based, human; settings: Homo sapiens
# Procedure: Human cancer cells were purchased from the American Type Culture Collection (Manassas, Va., USA).
# Cells were seeded in 96-well plates in medium with 5% fetal bovine serum. […] Unbound sulforhodamine B was washed out by 1% acetic acid and sulforhodamine B-bound cells were solubilized with 10 mmol/L Trizma base. […] Using the following absorbance measurements, such as time zero (T0), control growth (C), and cell growth in the presence of the drug (Tx), the percentage growth was calculated at each of the compound concentrations levels. Percentage growth inhibition was calculated as […].
# colorectal HCT116 = test: Sulforhodamine B (SRB) assay, colorectal HCT116; type: cell-based; settings: Homo sapiens
# Procedure: (§1) Human cancer cells were purchased from the American Type Culture Collection (Manassas, Va., USA). These cell lines were cultured in RPMI 1640 medium or DMEM supplemented with 10% FBS (v/v) and pencillin (100 U/mL)/streptomycin (100 ug/mL)/amphotericin B (0.25 ug/mL). Cultures were maintained at 37° C. in a humidified atmosphere of 5% CO2/95% air.
# (§2) Cells were seeded in 96-well plates in medium with 5% fetal bovine serum. After 24 h, cells were fixed with 10% trichloroacetic acid to represent cell population at the time of drug addition (T0). After additional incubation of DMSO or drugs for 48 h, cells were fixed with 10% trichloroacetic acid and sulforhodamine B at 0.4% (w/v) in 1% acetic acid was added to stain cells. Unbound sulforhodamine B was washed out by 1% acetic acid and sulforhodamine B-bound cells were solubilized with 10 mmol/L Trizma base. The absorbance was read at a wavelength of 515 nm. Using the following absorbance measurements, such as time zero (T0), control growth (C), and cell growth in the presence of the drug (Tx), the percentage growth was calculated at each of the compound concentrations levels. Percentage growth inhibition was calculated as […].
# liver Hep3B = test: Sulforhodamine B (SRB) assay, liver Hep3B; type: cell-based; settings: Homo sapiens
# Procedure: as §1, §2
# breast MDA-MB-231 = test: Sulforhodamine B (SRB) assay, breast MDA-MB-231; type: cell-based; settings: Homo sapiens
# Procedure: as §1, §2
# HUVEC cells = test: Sulforhodamine B (SRB) assay, HUVEC; settings: for GI50: Homo sapiens, HUVEC
# Procedure: as §1, §2
# HSP90 α protein = HSP90 α protein (Homo sapiens, UniProt P07900); test: HSP90 ATP-binding / fluorescence polarization competition assay (enzyme inhibition)
# Procedure: To assess the inhibition of HSP90 activity within a cellular context, cells were treated with certain substituted aromatic compounds of formula (I) and the inhibition of HSP90 ATP-binding activity in cells was determined by using an ATP pull-down assay. Cells were treated with the compounds for 24 hours and then lysed in TNESV buffer (50 mM Tris, 2 mM EDTA, […], 1 mM activated sodium orthovanadate, 25 mM NaF, 1% Triton X-100 [pH 7.5]) for 30 min at 4° C. Lysates were spun for 30 min at 12000 rpm at 4° C. Protein (200 ug) was incubated with conditioned γ-ATP-polyacrylamide resin in incubation buffer (10 mM Tris-HCl, 50 mM KCl, 5 mM MgCl2, 20 mM Na2MoO4, 0.01% Nonidet P-40) overnight at 4° C., rotating. The resin was then washed four times with incubation buffer. Bound proteins were isolated by boiling with SDS buffer. For the competition studies, fluorescence polarization assays were performed under the following conditions: each 96-well plate contained 5 nM fluorescent GM (geldanamycin), 30 nM HSP90 α protein, and tested inhibitor in a final volume of 100 uL. For each assay, background wells (buffer only), tracer controls (free, fluorescent GMonly), and bound GM controls (fluorescent GM in the presence of HSP90) were included on each assay plate. The fraction of tracer bound to HSP90 was correlated to the mP value and plotted against log 10 values of competitor concentrations. The inhibitor concentration at which 50% of bound GM was displaced was obtained by fitting the data.
# [1] = test system: HSP90 client proteins, i.e., EGFR, Akt, CDK-4, and HSP70, in HCT-116 tumor cells; test: Western blot of HSP90 client proteins in HCT-116 tumor cells; type: cell-based, human; settings: HCT-116 cells, 24 hours after treatment
# Procedure: Western blot analysis was performed to detect cell apoptotic signaling activated by substituted aromatic compounds of formula (I). Cells were harvested by scraping with lysis buffer (1 mM EGTA, 1 mM EDTA, 150 mM NaCl, 1% Triton X-100, 2.5 mM sodium pyrophosphate, 1 mM PMSF, 1 mM Na3VO4, 1 ug/mL leupeptin, 1 ug/mL aprotinin, 5 mM NaF in 20 mM Tris-HCl buffer, pH 7.5). Cell lysates were centrifuged at 13,000 g for 30 min. Total protein was determined and equal amounts of protein were separated by SDS-PAGE and immunoblotted with specific antibodies. Proteins were visualized by enhanced chemiluminescence (Amersham, Buckinghamshire, UK).
# Total cellular extracts were obtained 24 hours after treatment.
# [2] = test system: human colon HCT116 xenograft; test: Human colon HCT116 xenograft model; settings: po; for TGI, tumor growth inhibition: n = 7-8
# Procedure: An in vivo study was conducted to evaluate the efficacy of compounds of formula (I) in suppressing tumor growth in a human colon HCT116 xenograft model.
# [3] = Pharmacokinetic profiles in rat; settings: in vivo
# Procedure: A pharmacokinetic study was conducted to evaluate the pharmacokinetic properties of compounds of formula (I).
# [4] = Maximum tolerated dose and therapeutic index in vivo; settings: for MTD: in vivo, po
# leukemia HL60 = test: MTT antiproliferative assay, HL60; type: cell-based; settings: Homo sapiens, HL-60
# lymphoblast MOLT4 = test: MTT antiproliferative assay, MOLT4; type: cell-based; settings: Homo sapiens, MOLT-4
# bone marrow K562 = test: MTT antiproliferative assay, K562; type: cell-based; settings: Homo sapiens
# [5] = test system: human lung NSCLC A549 cancer xenograft; test: Human lung NSCLC A549 cancer xenograft model; type: in vivo; settings: daily oral administration
# [6] = A549, 48 h, read-out: GI50 Lung A549
# [7] = HCT-116, 48 h, read-out: GI50 Colorectal HCT116
# [8] = 48 h, read-out: GI50 Liver Hep3B
# [9] = MDA-MB-231, 48 h, read-out: GI50 Breast MDA-MB-231
# [10] = MDA-MB-231, read-out: MDA-MB-231 GI50
SMILES,GI50 (lung A549; [6]),"GI50 (lung A549; A549, read-out: A549 GI50)",GI50 (colorectal HCT116; [7]),"GI50 (colorectal HCT116; HCT-116, read-out: HCT116 GI50)",GI50 (liver Hep3B; [8]),GI50 (liver Hep3B; read-out: Hep3B GI50),GI50 (breast MDA-MB-231; [9]),GI50 (breast MDA-MB-231; [10]),"TI, Therapeutic Index measured by GI50(HUVEC)/GI50(A549) (HUVEC cells)","GI50 (HUVEC cells; 48 h, read-out: GI50 HUVEC)",GI50 (HUVEC cells; read-out: HUVEC GI50),IC50 (HSP90 α protein),expression levels of the chaperone HSP70 [1],"levels of HSP90 client proteins (EGFR, Akt, CDK-4) [1]","TGI, tumor growth inhibition ([2]; 100 mg/kg, qd)","AUC(0-inf) ([3]; iv, 2 mg/kg)","Vd ([3]; iv, 2 mg/kg)","Cmax ([3]; po, 20 mg/kg)","Tmax ([3]; po, 20 mg/kg)",MTD [4],other results
"CC(C)c1cc(C(=O)N(C)c2ccc3c(ccn3C)c2)c(O)cc1O [Compound 20g, 2,4-dihydroxy-5-isopropyl-N-methyl-N-(1-methyl-1H-indol-5-yl)benzamide]",280 ± 20 nM,280 ± 20 nM,700 ± 60 nM,700 ± 60 nM,570 ± 320 nM,570 ± 320 nM,100 ± 20 nM,100 ± 20 nM,2.9,820 ± 30 nM,820 ± 30 nM,106 ± 7.58 nM,increase,substantial depletion,83.9%,288 ± 59 ng·h/mL,4.3 ± 1.3 L/kg,12.8 ± 8.3 ng/mL,0.5 ± 0.4 h,< 250 mg/kg,"clearance ([3]; iv, 2 mg/kg): 117 ± 23 mL/min/kg; half-life ([3]; iv, 2 mg/kg): 0.7 ± 0.1 h; AUC(0-inf) ([3]; po, 20 mg/kg): 36 ± 5 ng·h/mL; bioavailability ([3]; po, 20 mg/kg): 1.3%; half-life ([3]; po, 20 mg/kg): 2.2 ± 0.6 h; TI, Therapeutic Index, ratio of MTD to minimum efficacious dose (MED) [4]: <2.5"
"CC(C)c1cc(C(=O)N(C)c2ccc3[nH]ccc3c2)c(O)cc1O [Compound 20b, 2,4-dihydroxy-N-(1H-indol-5-yl)-5-isopropyl-N-methylbenzamide]",170 ± 10 nM,170 ± 10 nM,1000 ± 490 nM,1000 ± 490 nM,180 ± 40 nM,180 ± 40 nM,70 ± 10 nM,70 ± 10 nM,3.4,570 ± 20 nM,570 ± 20 nM,115 ± 10.7 nM,increase,substantial depletion,–,142 ± 25 ng·h/mL,18 ± 4.5 L/kg,82 ± 34 ng/mL,2.2 ± 1.8 h,< 250 mg/kg,"Loss of Body ([2]; 100 mg/kg, qd × 7/5 on 2 off, Day 5): −8.5%; TGI, tumor growth inhibition ([2]; 100 mg/kg, qd × 7/5 on 2 off): 37.7%; clearance ([3]; iv, 2 mg/kg): 237 ± 37 mL/min/kg; half-life ([3]; iv, 2 mg/kg): 1.3 ± 0.3 h; AUC(0-inf) ([3]; po, 20 mg/kg): 533 ± 154 ng·h/mL; bioavailability ([3]; po, 20 mg/kg): 37%; half-life ([3]; po, 20 mg/kg): 7.5 ± 1.3 h; TI, Therapeutic Index, ratio of MTD to minimum efficacious dose (MED) [4]: <2.5"
"CCN(C(=O)c1cc(C(C)C)c(O)cc1O)c1cccnc1 [Compound 18b, N-ethyl-2,4-dihydroxy-5-isopropyl-N-(pyridin-3-yl)benzamide]",–,–,–,–,–,–,–,–,–,–,–,110 ± 3.13 nM,increase,substantial depletion,74.3%,–,5.5 ± 1.1 L/kg,40 ± 13 ng/mL,6 ± 2 h,250 mg/kg,"GI50 (breast MDA-MB-231; MDA-MB-231, Table 2, SRB, read-out: MDA-MB-231 GI50): 90 ± 10 nM; IC50 (leukemia HL60): 240 ± 40 nM; IC50 (lymphoblast MOLT4): 190 ± 10 nM; IC50 (bone marrow K562): 130 ± 90 nM; Loss of Body ([2]; 25 mg/kg, qd): 0%; TGI, tumor growth inhibition ([2]; 25 mg/kg, qd): 55.6%; Loss of Body ([2]; 100 mg/kg, qd): 0%; TGI ([5]; 25 mg/kg): 46.7%; TGI ([5]; 50 mg/kg): 46.9%; TGI ([5]; 100 mg/kg): 50.9%; body weight loss ([5]; 25, 50, and 100 mg/kg): without significant body weight loss; AUC(0-inf) ([3]; iv, 2 mg/kg, AUC(0-inf), IV (2 mg/kg)): 520 ± 14 ng·h/mL; clearance ([3]; iv, 2 mg/kg, CL, IV (2 mg/kg)): ~64 mL/min/kg; half-life ([3]; iv, 2 mg/kg, T1/2, rat, IV (2 mg/kg)): 4 ± 1.7 h; bioavailability ([3]; oral, 20 mg/kg): 25%; AUC(0-inf) ([3]; po, 20 mg/kg, AUC(0-inf), PO (20 mg/kg)): ~1310 ng·h/mL; half-life ([3]; po, 20 mg/kg, T1/2, rat, PO (20 mg/kg)): ~27.7 h"
